Numbered stars: 1 amine (or outer) side, 2 acyl side, 3 side chain; on linkers, the order of the positions; unused ones are H or OH. Bridge positions count the residues as written; N and C are the ends. Square brackets hold non-standard residues; d marks the D form. Side chains are listed from the residue outwards. Peptide text beside a SMILES is read from it. * marks the point of attachment. ξ: configuration not given here. Ala(piperidin-4-yl) = O=C([C@H](CC1CCN([*:3])CC1)N[*:1])[*:2]; DOTA = O=C(O)CN1CCN(CC(=O)O)CCN(CC(=O)*)CCN(CC(=O)O)CC1; 1Nal = N[C@@H](Cc1cccc2ccccc12)C(=O)O; 2Nal = N[C@@H](Cc1ccc2ccccc2c1)C(=O)O; Phe(2-Me) = Cc1ccccc1C[C@H](N)C(=O)O; oXylylene = c1ccc(C[*:2])c(C[*:1])c1; ξγGlu = O=C(O)C(CCC(=O)[*:2])N[*:1]; Gly(cPent) = N[C@H](C(=O)O)C1CCCC1; pXylylene = c1cc(C[*:2])ccc1C[*:1]; Ala(cPr) = N[C@@H](CC1CC1)C(=O)O; tBuAla = CC(C)(C)C[C@H](N)C(=O)O; NMeD = CN[C@@H](CC(=O)O)C(=O)O; Chg = N[C@H](C(=O)O)C1CCCCC1; αMeP = C[C@@]1(C(=O)O)CCCN1; Ahx = NCCCCCC(=O)O
Molecular target: T1, human DLL3 (Homo sapiens, UniProt Q9NYJ7)
T1 construct: biotin (biotinylated)
T1 sequence (Q9NYJ7 27-618): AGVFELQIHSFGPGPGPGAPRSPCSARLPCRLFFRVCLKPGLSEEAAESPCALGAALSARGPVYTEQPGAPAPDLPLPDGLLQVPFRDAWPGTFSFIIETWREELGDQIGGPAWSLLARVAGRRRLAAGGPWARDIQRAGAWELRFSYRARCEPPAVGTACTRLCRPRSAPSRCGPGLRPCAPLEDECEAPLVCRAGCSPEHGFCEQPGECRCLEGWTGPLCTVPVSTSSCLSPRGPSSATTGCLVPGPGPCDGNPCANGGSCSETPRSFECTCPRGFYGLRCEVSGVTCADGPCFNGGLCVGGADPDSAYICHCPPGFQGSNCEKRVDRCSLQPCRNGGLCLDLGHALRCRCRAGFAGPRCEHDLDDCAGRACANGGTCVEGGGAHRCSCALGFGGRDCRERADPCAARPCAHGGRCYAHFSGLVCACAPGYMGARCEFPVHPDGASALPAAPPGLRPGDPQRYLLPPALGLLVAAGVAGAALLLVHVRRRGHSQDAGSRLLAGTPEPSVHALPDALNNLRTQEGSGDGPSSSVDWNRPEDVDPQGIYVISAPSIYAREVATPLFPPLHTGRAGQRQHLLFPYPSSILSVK
Assay: Affinity determination by Surface Plasmon Resonance (SPR), Biacore, 1:1 binding model
Conditions: biotinylated human DLL3 on streptavidin chip, 25° C.; NB = nonbinding
Outline: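 SPR with biotinylated human DLL3 captured on a streptavidin chip, with a reference surface subtracted. Samples were injected at several concentrations at 100 μL/min in phosphate buffer with 137 mM NaCl, 2.7 mM KCl, 0.05% P20 and 2% DMSO. Kinetic and affinity constants came from a 1:1 binding fit.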

SMILES	Kd [nM]	SPR KD (nM)
CC(=O)N[C@H](CO)C(=O)N[C@@H](CC(=O)O)C(=O)N[C@H]1CSSC[C@@H](C(=O)N2CCC[C@@]2(C)C(=O)N[C@@H](Cc2ccccc2)C(=O)N[C@@H](CC(=O)O)C(=O)N[C@H](CCCCNC(=O)CN2CCN(CC(=O)O)CCN(CC(=O)O)CCN(CC(=O)O)CC2)C(N)=O)NC(=O)[C@H](CC(N)=O)NC(=O)[C@H](Cc2c[nH]c3ccccc23)NC(=O)[C@H](CCC(N)=O)NC(=O)[C@@H](CC(C)C)NC(=O)[C@H](Cc2cccc3ccccc23)NC1=O [compound 139, Ac-(D-Ser)-D-C(3)-(1Nal)-(D-Leu)-Q-W-N-C(3)-(aMe-P)-F-D-D-Lys(DOTA)-CONH2] (Ac-[dS]DC[1Nal][dL]QWNC[αMeP]FD[dK](DOTA)-NH2; disulfide 3-9)	> 30	
CC(=O)N[C@H](CO)C(=O)N[C@@H](CC(=O)O)C(=O)N[C@H]1CSSC[C@@H](C(=O)N2CCC[C@@]2(C)C(=O)N[C@@H](Cc2ccccc2)C(=O)N[C@@H](CC(=O)O)C(=O)N[C@H](CCCCNC(=O)CN2CCN(CC(=O)O)CCN(CC(=O)O)CCN(CC(=O)O)CC2)C(N)=O)NC(=O)[C@H](CC(N)=O)NC(=O)[C@H](Cc2c[nH]c3ccccc23)NC(=O)[C@H](CCC(N)=O)NC(=O)[C@H](CC2CC2)NC(=O)[C@H](Cc2cccc3ccccc23)NC1=O [compound 140, Ac-(D-Ser)-D-C(3)-(1Nal)-(cPrA)-Q-W-N-C(3)-(aMe-P)-F-D-D-Lys(DOTA)-CONH2] (Ac-[dS]DC[1Nal][Ala(cPr)]QWNC[αMeP]FD[dK](DOTA)-NH2; disulfide 3-9)	1.5	
CC(=O)N[C@H](CO)C(=O)N[C@@H](CC(=O)O)C(=O)N[C@H]1CSSC[C@@H](C(=O)N2CCC[C@@]2(C)C(=O)N[C@@H](Cc2ccccc2)C(=O)N[C@@H](CC(=O)O)C(=O)N[C@H](CCCCNC(=O)CN2CCN(CC(=O)O)CCN(CC(=O)O)CCN(CC(=O)O)CC2)C(N)=O)NC(=O)[C@H](CC(N)=O)NC(=O)[C@H](Cc2c[nH]c3ccccc23)NC(=O)[C@H](CCC(N)=O)NC(=O)[C@H](C2CCCC2)NC(=O)[C@H](Cc2cccc3ccccc23)NC1=O [compound 141, Ac-(D-Ser)-D-C(3)-(1Nal)-(cPenG)-Q-W-N-C(3)-(aMe-P)-F-D-D-Lys(DOTA)-CONH2] (Ac-[dS]DC[1Nal][Gly(cPent)]QWNC[αMeP]FD[dK](DOTA)-NH2; disulfide 3-9)	1.18	
CC(=O)N[C@H](C(=O)N[C@@H](CCCCNC(=O)CN1CCN(CC(=O)O)CCN(CC(=O)O)CCN(CC(=O)O)CC1)C(=O)N[C@@H](CC(=O)O)C(=O)N[C@H]1CSSC[C@@H](C(=O)N2CCC[C@@]2(C)C(=O)N[C@@H](Cc2ccccc2)C(=O)N[C@@H](CC(=O)O)C(N)=O)NC(=O)[C@H](CC(N)=O)NC(=O)[C@H](Cc2c[nH]c3ccccc23)NC(=O)[C@H](CCC(N)=O)NC(=O)[C@H](CC(C)C)NC(=O)[C@H](Cc2cccc3ccccc23)NC1=O)C1CCCCC1 [compound 142, Ac-(Chg)-[L-Lys(DOTA)]-D-C(3)-(1Nal)-L-Q-W-N-C(3)-(aMe-P)-F-D-CONH2] (Ac-[Chg]K(DOTA)DC[1Nal]LQWNC[αMeP]FD-NH2; disulfide 4-10)	20.2	
CC(=O)N[C@H](C(=O)N[C@@H](CO)C(=O)N[C@@H](CC(=O)O)C(=O)N[C@H]1CSCc2ccccc2CSC[C@@H](C(=O)N2CCC[C@@]2(C)C(=O)N[C@@H](Cc2ccccc2)C(=O)N[C@@H](CC(=O)O)C(=O)N[C@H](CCCCNC(=O)CN2CCN(CC(=O)O)CCN(CC(=O)O)CCN(CC(=O)O)CC2)C(N)=O)NC(=O)[C@H](CC(N)=O)NC(=O)[C@H](Cc2c[nH]c3ccccc23)NC(=O)[C@H](CCC(N)=O)NC(=O)[C@H](CC(C)C)NC(=O)[C@H](Cc2cccc3ccccc23)NC1=O)C1CCCCC1 [compound 143, Ac-(Chg)-S-D-C(oDBX)-(1Nal)-L-Q-W-N-C(2)-(aMe-P)-F-D-D-Lys(DOTA)-CONH2] (Ac-[Chg]SDC[1Nal]LQWNC[αMeP]FD[dK](DOTA)-NH2; linker 4-10 via oXylylene)		slow kon
CC(=O)N[C@H](C(=O)N[C@@H](CO)C(=O)N[C@@H](CC(=O)O)C(=O)N[C@H]1CSCc2ccc(cc2)CSC[C@@H](C(=O)N2CCC[C@@]2(C)C(=O)N[C@@H](Cc2ccccc2)C(=O)N[C@@H](CC(=O)O)C(=O)N[C@H](CCCCNC(=O)CN2CCN(CC(=O)O)CCN(CC(=O)O)CCN(CC(=O)O)CC2)C(N)=O)NC(=O)[C@H](CC(N)=O)NC(=O)[C@H](Cc2c[nH]c3ccccc23)NC(=O)[C@H](CCC(N)=O)NC(=O)[C@H](CC(C)C)NC(=O)[C@H](Cc2cccc3ccccc23)NC1=O)C1CCCCC1 [compound 145, Ac-(Chg)-S-D-C(pDBX)-(1Nal)-L-Q-W-N-C(2)-(aMe-P)-F-D-D-Lys(DOTA)-CONH2] (Ac-[Chg]SDC[1Nal]LQWNC[αMeP]FD[dK](DOTA)-NH2; linker 4-10 via pXylylene)	> 30	
CC(=O)N[C@H](C)C(=O)N[C@@H](CO)C(=O)N[C@@H](CC(=O)O)C(=O)N[C@H]1CSSC[C@@H](C(=O)N2CCC[C@@]2(C)C(=O)N[C@@H](Cc2ccccc2)C(=O)N[C@@H](CC(=O)O)C(=O)N[C@H](CCCCNC(=O)CN2CCN(CC(=O)O)CCN(CC(=O)O)CCN(CC(=O)O)CC2)C(N)=O)NC(=O)[C@H](CC(N)=O)NC(=O)[C@H](Cc2ccc3ccccc3c2)NC(=O)[C@H](CC2CCNCC2)NC(=O)[C@H](CC(C)(C)C)NC(=O)[C@H](Cc2cccc3ccccc23)NC1=O [compound 146, Ac-(D-Ala)-S-D-C(3)-(1Nal)-(t-Bu-Ala)-[3-(4-piperidinyl)-Ala]-(2Nal)-N-C(3)-(aMe-P)-F -D-D-Lys(DOTA)-CONH2] (Ac-[dA]SDC[1Nal][tBuAla][Ala(piperidin-4-yl)][2Nal]NC[αMeP]FD[dK](DOTA)-NH2; disulfide 4-10)	0.29	
CC(=O)N[C@H](C(=O)N[C@@H](CO)C(=O)N[C@@H](CC(=O)O)C(=O)N[C@H]1CSSC[C@@H](C(=O)N2CCC[C@@]2(C)C(=O)N[C@@H](Cc2ccccc2)C(=O)N[C@@H](CC(=O)O)C(=O)N[C@H](CCCCNC(=O)CN2CCN(CC(=O)O)CCN(CC(=O)O)CCN(CC(=O)O)CC2)C(N)=O)NC(=O)[C@H](CC(N)=O)NC(=O)[C@H](Cc2ccc3ccccc3c2)NC(=O)[C@H](CCC(N)=O)NC(=O)[C@H](CC(C)(C)C)NC(=O)[C@H](Cc2cccc3ccccc23)NC1=O)C1CCCCC1 [compound 148, Ac-(Chg)-S-D-C(3)-(1Nal)-(t-Bu-Ala)-Q-(2Nal)-N-C(3)-(aMe-P)-F -D-D-Lys(DOTA)-CONH2] (Ac-[Chg]SDC[1Nal][tBuAla]Q[2Nal]NC[αMeP]FD[dK](DOTA)-NH2; disulfide 4-10)	0.29	
CC(=O)N[C@H](C)C(=O)N[C@@H](CO)C(=O)N[C@@H](CC(=O)O)C(=O)N[C@H]1CSSC[C@@H](C(=O)N2CCC[C@@]2(C)C(=O)N[C@@H](Cc2ccccc2)C(=O)N(C)[C@@H](CC(=O)O)C(=O)N[C@H](CCCCNC(=O)CN2CCN(CC(=O)O)CCN(CC(=O)O)CCN(CC(=O)O)CC2)C(=O)O)NC(=O)[C@H](CC(N)=O)NC(=O)[C@H](Cc2ccc3ccccc3c2)NC(=O)[C@H](CCC(N)=O)NC(=O)[C@H](CC(C)(C)C)NC(=O)[C@H](Cc2cccc3ccccc23)NC1=O [compound 149, Ac-(D-Ala)-S-D-C(3)-(1Nal)-(t-Bu-Ala)-Q-(2Nal)-N-C(3)-(aMe-P)-F-(NMe-D)-D-Lys(DOTA)-CONH2] (Ac-[dA]SDC[1Nal][tBuAla]Q[2Nal]NC[αMeP]F[NMeD][dK](DOTA)-OH; disulfide 4-10)	> 30	
CC(=O)N[C@H](C)C(=O)N[C@@H](CO)C(=O)N[C@@H](CC(=O)O)C(=O)N[C@H]1CSSC[C@@H](C(=O)N2CCC[C@@]2(C)C(=O)N[C@@H](Cc2ccccc2C)C(=O)N[C@@H](CC(=O)O)C(N)=O)NC(=O)[C@H](CC(N)=O)NC(=O)[C@H](Cc2ccc3ccccc3c2)NC(=O)[C@H](CCCCNC(=O)CCC(NC(=O)CN2CCN(CC(=O)O)CCN(CC(=O)O)CCN(CC(=O)O)CC2)C(=O)O)NC(=O)[C@H](CC(C)(C)C)NC(=O)[C@H](Cc2cccc3ccccc23)NC1=O (stereo partly drawn) [compound 152, Ac-(D-Ala)-S-D-C(3)-(1Nal)-(t-Bu-Ala)-[L-Lys(yE-DOTA)]-(2Nal)-N-C(3)-(aMe-P)-(2Me-F)-D-CONH2] (Ac-[dA]SDC[1Nal][tBuAla]K([ξγGlu-DOTA])[2Nal]NC[αMeP][Phe(2-Me)]D-NH2; disulfide 4-10)	0.51	
Cc1ccccc1C[C@H](NC(=O)[C@]1(C)CCCN1C(=O)[C@@H]1CSSC[C@H](NC(=O)[C@H](CC(=O)O)NC(=O)[C@H](CO)NC(=O)CCCCCNC(=O)CN2CCN(CC(=O)O)CCN(CC(=O)O)CCN(CC(=O)O)CC2)C(=O)N[C@@H](Cc2cccc3ccccc23)C(=O)N[C@@H](CC(C)(C)C)C(=O)N[C@@H](CCC(N)=O)C(=O)N[C@@H](Cc2ccc3ccccc3c2)C(=O)N[C@@H](CC(N)=O)C(=O)N1)C(=O)N[C@@H](CC(=O)O)C(N)=O [compound 155, DOTA-Ahx-S-D-C(3)-(1Nal)-(t-Bu-Ala)-Q-(2Nal)-N-C(3)-(aMe-P)-(2Me-F)-D-CONH2] ({DOTA-Ahx}-SDC[1Nal][tBuAla]Q[2Nal]NC[αMeP][Phe(2-Me)]D-NH2; disulfide 3-9)	0.11	

— patent US20250186541A1, “DLL3 TARGETING PEPTIDES AND CONSTRUCTS THEREOF” (MARIANA ONCOLOGY INC., priority 2023, published 2025)
